Source: PubChem BioAssay AID1963961 (Molecular Pharmacology Branch, DTP, NCI, 2024)
Each block holds one compound with its values, some of them ahead of it.

Tested on: K98450-129-R-PDC multicell spheroids, viability
Test: Anticancer human tumor K98450-129-R-PDC patient-derived colon adenocarcinoma cell line growth inhibition [PI3K]
Details: for IC50: curve of first compound; for viability, T/C: stronger effect = lower value
Method in brief: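 Viability of mixed-cell spheroids was determined after exposure to pairwise combinations, one partner being inavolisib, alpelisib, duvelisib or copanlisib. Highest tested concentration matched clinical Cmax where known and 10 microM where not, descending in half-log steps.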

[1] = second compound 0.0316 µM, first compound 0.0316 µM
[2] = second compound 0.0316 µM, first compound 0.1 µM
[3] = second compound 0.0316 µM, first compound 0.316 µM
[4] = second compound 0.0316 µM, first compound 1 µM
[5] = second compound 0.0316 µM, first compound 3.16 µM
[6] = second compound 0.0316 µM, first compound 10 µM
[7] = second compound 0.1 µM, first compound 0.0316 µM
[8] = second compound 0.1 µM, first compound 0.1 µM
[9] = second compound 0.1 µM, first compound 0.316 µM
[10] = second compound 0.1 µM, first compound 1 µM
[11] = second compound 0.1 µM, first compound 3.16 µM
[12] = second compound 0.1 µM, first compound 10 µM
[13] = second compound 0.316 µM, first compound 0.0316 µM
[14] = second compound 0.316 µM, first compound 0.1 µM
[15] = second compound 0.316 µM, first compound 0.316 µM
[16] = second compound 0.316 µM, first compound 1 µM
[17] = second compound 0.316 µM, first compound 3.16 µM
[18] = second compound 0.316 µM, first compound 10 µM
[19] = second compound 1 µM, first compound 0.0316 µM
[20] = second compound 1 µM, first compound 0.1 µM
[21] = second compound 1 µM, first compound 0.316 µM
[22] = second compound 1 µM, first compound 1 µM
[23] = second compound 1 µM, first compound 3.16 µM
[24] = second compound 1 µM, first compound 10 µM
[25] = second compound 3.16 µM, first compound 0.0316 µM
[26] = second compound 3.16 µM, first compound 0.1 µM
[27] = second compound 3.16 µM, first compound 0.316 µM
[28] = second compound 3.16 µM, first compound 1 µM
[29] = second compound 3.16 µM, first compound 3.16 µM
[30] = second compound 3.16 µM, first compound 10 µM
[31] = second compound 10 µM, first compound 0.0316 µM
[32] = second compound 10 µM, first compound 0.1 µM
[33] = second compound 10 µM, first compound 0.316 µM
[34] = second compound 10 µM, first compound 1 µM
[35] = second compound 10 µM, first compound 3.16 µM
[36] = second compound 10 µM, first compound 10 µM
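Also: spheroids exposed to agents for seven days before read-out.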

IC50 (second compound 0.0316 µM): > 10 µM | IC50 (second compound 0.1 µM): > 10 µM | IC50 (second compound 0.316 µM): > 10 µM | IC50 (second compound 1 µM): > 10 µM | IC50 (second compound 3.16 µM): > 10 µM | IC50 (second compound 10 µM): > 10 µM
Structure (SMILES): C#Cc1c(F)ccc2cc(O)cc(-c3ncc4c(N5CC6CCC(C5)N6)nc(OCC56CCCN5CC(F)C6)nc4c3F)c12 (stereo not drawn) + CC(Nc1ncnc2nc[nH]c12)c1cc2cccc(Cl)c2c(=O)n1-c1ccccc1
viability, T/C [1]: 120% | viability, T/C [2]: 101% | viability, T/C [3]: 99.1% | viability, T/C [4]: 91.7% | viability, T/C [5]: 90.9% | viability, T/C [6]: 92.9% | viability, T/C [7]: 116% | viability, T/C [8]: 98.7% | viability, T/C [9]: 96.4% | viability, T/C [10]: 90.1% | viability, T/C [11]: 98.2% | viability, T/C [12]: 90.6% | viability, T/C [13]: 110% | viability, T/C [14]: 106% | viability, T/C [15]: 91.1% | viability, T/C [16]: 100% | viability, T/C [17]: 101% | viability, T/C [18]: 96.2% | viability, T/C [19]: 98.9% | viability, T/C [20]: 91.6% | viability, T/C [21]: 104% | viability, T/C [22]: 84.1% | viability, T/C [23]: 115% | viability, T/C [24]: 77.5% | viability, T/C [25]: 89.4% | viability, T/C [26]: 89.9% | viability, T/C [27]: 93.5% | viability, T/C [28]: 85.1% | viability, T/C [29]: 92% | viability, T/C [30]: 87.4% | viability, T/C [31]: 87.5% | viability, T/C [32]: 98.2% | viability, T/C [33]: 88.2% | viability, T/C [34]: 91.3% | viability, T/C [35]: 99.9% | viability, T/C [36]: 75.1%

IC50 (second compound 0.0316 µM): 5.34 µM | IC50 (second compound 0.1 µM): 3.4 µM | IC50 (second compound 0.316 µM): 5.92 µM | IC50 (second compound 1 µM): 3.54 µM | IC50 (second compound 3.16 µM): 1.84 µM | IC50 (second compound 10 µM): 2.02 µM
Structure (SMILES): C=CC(=O)N1CCN(c2nc(=O)n(-c3c(C)ccnc3C(C)C)c3nc(-c4c(O)cccc4F)c(F)cc23)C(C)C1 (stereo not drawn) + CC(Nc1ncnc2nc[nH]c12)c1cc2cccc(Cl)c2c(=O)n1-c1ccccc1
viability, T/C [1]: 94.3% | viability, T/C [2]: 96.5% | viability, T/C [3]: 79.7% | viability, T/C [4]: 74.1% | viability, T/C [5]: 53.3% | viability, T/C [6]: 44.4% | viability, T/C [7]: 106% | viability, T/C [8]: 99.7% | viability, T/C [9]: 89.2% | viability, T/C [10]: 67.9% | viability, T/C [11]: 52.4% | viability, T/C [12]: 36.5% | viability, T/C [13]: 111% | viability, T/C [14]: 105% | viability, T/C [15]: 92.1% | viability, T/C [16]: 68.5% | viability, T/C [17]: 54% | viability, T/C [18]: 46.9% | viability, T/C [19]: 113% | viability, T/C [20]: 104% | viability, T/C [21]: 89.4% | viability, T/C [22]: 73.9% | viability, T/C [23]: 46.9% | viability, T/C [24]: 42% | viability, T/C [25]: 93.5% | viability, T/C [26]: 98.1% | viability, T/C [27]: 96.9% | viability, T/C [28]: 60.5% | viability, T/C [29]: 44.5% | viability, T/C [30]: 36.6% | viability, T/C [31]: 81.2% | viability, T/C [32]: 78.4% | viability, T/C [33]: 84% | viability, T/C [34]: 67.1% | viability, T/C [35]: 39.4% | viability, T/C [36]: 32.8%

IC50 (second compound 0.0316 µM): > 10 µM | IC50 (second compound 0.1 µM): > 10 µM | IC50 (second compound 0.316 µM): > 10 µM | IC50 (second compound 1 µM): > 10 µM | IC50 (second compound 3.16 µM): > 10 µM | IC50 (second compound 10 µM): > 10 µM
Structure (SMILES): CC(Cn1ccc(-c2ccc(C#N)c(Cl)c2)n1)NC(=O)c1cc(C(C)O)[nH]n1 (stereo not drawn) + CC(Nc1ncnc2nc[nH]c12)c1cc2cccc(Cl)c2c(=O)n1-c1ccccc1
viability, T/C [1]: 119% | viability, T/C [2]: 101% | viability, T/C [3]: 87.3% | viability, T/C [4]: 92.5% | viability, T/C [5]: 102% | viability, T/C [6]: 101% | viability, T/C [7]: 106% | viability, T/C [8]: 113% | viability, T/C [9]: 107% | viability, T/C [10]: 96.5% | viability, T/C [11]: 98.5% | viability, T/C [12]: 103% | viability, T/C [13]: 99.5% | viability, T/C [14]: 109% | viability, T/C [15]: 92.5% | viability, T/C [16]: 92.3% | viability, T/C [17]: 104% | viability, T/C [18]: 99% | viability, T/C [19]: 94.7% | viability, T/C [20]: 95.2% | viability, T/C [21]: 91.7% | viability, T/C [22]: 99.1% | viability, T/C [23]: 93.4% | viability, T/C [24]: 88% | viability, T/C [25]: 72.7% | viability, T/C [26]: 86.1% | viability, T/C [27]: 86.7% | viability, T/C [28]: 80.3% | viability, T/C [29]: 103% | viability, T/C [30]: 84% | viability, T/C [31]: 84.1% | viability, T/C [32]: 87.4% | viability, T/C [33]: 83% | viability, T/C [34]: 88.7% | viability, T/C [35]: 81.8% | viability, T/C [36]: 84.8%

IC50 (second compound 0.0316 µM): > 10 µM | IC50 (second compound 0.1 µM): 7.06 µM | IC50 (second compound 0.316 µM): > 10 µM | IC50 (second compound 1 µM): 4.51 µM | IC50 (second compound 3.16 µM): 5.35 µM | IC50 (second compound 10 µM): 2.33 µM
Structure (SMILES): CC1(C)CCC(Nc2ncc(C(F)(F)F)c(-c3c[nH]c4c(P(C)(C)=O)c(C#N)ccc34)n2)CN1 (stereo not drawn) + CC(Nc1ncnc2nc[nH]c12)c1cc2cccc(Cl)c2c(=O)n1-c1ccccc1
viability, T/C [1]: 104% | viability, T/C [2]: 85.5% | viability, T/C [3]: 67.9% | viability, T/C [4]: 67.4% | viability, T/C [5]: 66.2% | viability, T/C [6]: 44.5% | viability, T/C [7]: 139% | viability, T/C [8]: 108% | viability, T/C [9]: 69.2% | viability, T/C [10]: 68.7% | viability, T/C [11]: 78.7% | viability, T/C [12]: 45.2% | viability, T/C [13]: 101% | viability, T/C [14]: 98.4% | viability, T/C [15]: 75.3% | viability, T/C [16]: 58.6% | viability, T/C [17]: 76.8% | viability, T/C [18]: 45% | viability, T/C [19]: 107% | viability, T/C [20]: 93.6% | viability, T/C [21]: 74.7% | viability, T/C [22]: 64.6% | viability, T/C [23]: 62.9% | viability, T/C [24]: 36.9% | viability, T/C [25]: 101% | viability, T/C [26]: 82.4% | viability, T/C [27]: 63.8% | viability, T/C [28]: 70.9% | viability, T/C [29]: 65.1% | viability, T/C [30]: 36.7% | viability, T/C [31]: 94.9% | viability, T/C [32]: 88.5% | viability, T/C [33]: 63.3% | viability, T/C [34]: 62% | viability, T/C [35]: 59.6% | viability, T/C [36]: 21.6%
